Test results: the METLIN SMRT retention time set (Domingo-Almenara et al. 2019)

Test: gradient 5% acetonitrile 3 min, to 50% in 2 min, to 85% in 15 min, held 3 min, 100 µL/min
Conditions: column: Zorbax Extend-C18 2.1 x 50 mm; eluents: water / acetonitrile, 0.1% formic acid
How it was run: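 Standards, all pure, were combined into mixtures of ~100 molecules and run at 100 μL/min on a Zorbax Extend-C18 column (2.1 × 50 mm, 1.8 μm) with water and acetonitrile, each containing 0.1% formic acid. A coupled quadrupole time-of-flight mass spectrometer operated in positive and negative ionization mode. Retention time values come from computationally picked adduct peaks, each inspected manually.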

Structure (SMILES)	RP-LC retention time
CC(C)Cn1c(=O)c(N2CCN(C(=O)c3ccc(Cl)cc3)CC2)nc2ccncc21	689 s
Cn1nc(C(F)(F)F)cc1C(=O)N1CCCC1c1ccccc1Cl (centres undefined)	1030 s
CN1C(=O)c2cccnc2Sc2cc(C(=O)NCc3ccccc3Cl)ccc21	806 s
Cc1nc(OCC(=O)Nc2ccc(F)cc2)c2ccccc2n1	709 s
CCNc1cc(N2CCCC(CCC(=O)NCc3ccccc3OC)C2)ncn1 (centres undefined)	656 s
O=C1CCCN1c1ccc(Cn2cc(-c3nc(-c4cccc(F)c4)no3)ccc2=O)cc1	608 s
CCC(C)C(NC(=O)c1ccc(C(C)C)cc1)C(=O)Nc1nc2ccccc2[nH]1 (centres undefined)	856 s
O=C(Cc1cccs1)N1CCCC(c2nncn2-c2ccccc2)C1 (centres undefined)	663 s
O=C(Nc1c(-c2ccccc2)nc2ccc(Cl)cn12)c1ccc(F)cc1	750 s
CC(=O)N1CCc2cc(N3CC(C(=O)Nc4ccc(F)cc4C)CC3=O)ccc21 (centres undefined)	690 s
CN(C)C(=O)c1[nH]c2ccccc2c1N1CCCC1=O	604 s
Cc1cc(C)cc(NS(=O)(=O)c2cn(CC(C)C)c3ncccc23)c1	763 s
CNC(=O)C1CN(C(=O)Cc2ccc(C)cc2)CC12CCCC2 (centres undefined)	722 s
Cc1cc(C)c2nc(-c3ccc4ccccc4c3)cc(C(=O)O)c2c1	1310 s
Cc1cc2nc(C)c(=O)n(CC(=O)NCCN(C)C)c2cc1C	583 s
CC(=O)Nc1ccc(S(=O)(=O)N=S(C)C)cc1	608 s
COc1ccc(CCNC(=O)C2CCCN(c3ncnc4c3nc3n4CCCCC3)C2)c(OC)c1 (centres undefined)	778 s
O=C(C1CCCN(c2nc3ccccc3n3cccc23)C1)N1CCN(c2ccc(F)cc2)CC1 (centres undefined)	805 s
Cc1ccc(-c2noc(-c3ccccc3S(=O)(=O)Nc3ccc(S(N)(=O)=O)cc3)n2)cc1	933 s
CCOc1ccc2nc(NS(=O)(=O)c3ccc4c5c(cccc35)C(=O)N4)sc2c1	703 s
Cc1ccc(NC(=O)c2cccn2Cc2noc(C)n2)cc1	856 s
O=S(=O)(Nc1ccc(Cn2cncn2)cc1)c1cccc(F)c1	705 s
CCN1C(=O)COc2ccc(-c3csc(NC(=O)c4ccncc4)n3)cc21	748 s

Structure (SMILES)	RP-LC retention time
CCc1nc2cccnc2n1CCN1CCN(C(=O)Nc2ccc(Br)cc2)CC1	631 s
CCc1noc(-c2cnc3nc(C)ccc3c2Nc2ccc(OC)cc2)n1	764 s
Cc1ccc(C)c(N2CCN(C(=O)c3nc4cccnc4n(C)c3=O)CC2)c1	653 s
O=C(NC1CCN(C(=O)N2C[C@H]3C[C@H](C2)[C@H]2CCCC(=O)N2C3)CC1)c1ccc2ccccc2n1	714 s
O=C(NCc1cccnc1-c1ccc(F)cc1)c1cccs1	894 s
CCc1ccc(CNC(=O)c2nnc(-c3ccc(S(=O)(=O)N(C)C)cc3)o2)cc1	959 s
COc1ccc2nc(C(=O)NCc3ccc(F)cc3Cl)cn2n1	872 s
O=C(Nc1ccc2c(c1)OCO2)C1CCCN(c2ncc(-c3ccccc3)cn2)C1 (centres undefined)	1040 s
CCOc1ccc(-c2noc(CN3N=NC4C(=O)N(c5ccc(F)cc5)C(=O)C43)n2)cc1OC (centres undefined)	936 s
COCc1nncn1C1CCN(C(=O)c2cc(F)cc(F)c2)CC1	628 s
COc1cccc(CNC(=O)Nc2c(-c3ccc(F)cc3)nc3ccccn23)c1	652 s
CC(C)(C)C(=O)N1CCCC(c2ccnc(-c3cccc(F)c3)n2)C1 (centres undefined)	1130 s
COc1ccc(-c2noc(-c3cccn3CC(=O)NCc3ccco3)n2)cc1F	984 s
CCCN(CC1CCOC1)C(=O)Nc1cccc(CC)c1 (centres undefined)	864 s
CCCn1c(=O)sc2cc(S(=O)(=O)N3CCC(C(=O)N4CCc5ccccc5C4)CC3)ccc21	989 s
Cc1ccc(Nc2c(-c3ccc(C)cc3)nc3cnccn23)cc1	969 s
CCn1nccc1C(=O)Nc1cnc(N2CCCCCC2)nc1	834 s
Cc1ccc(Cn2cc(-c3ccncc3)cc2C(=O)NCC2CC2)cc1	705 s
CCOc1ccc(-c2csc3c(=O)n(Cc4cccc(Br)c4)cnc23)cc1OCC	1210 s
CCc1noc(NC(C)=O)c1-c1ccc(C)c(S(=O)(=O)NCc2ccc(F)cc2)c1	814 s
COCCCNC(=O)NC1CCN(c2nc3cccnc3n(Cc3ccccc3)c2=O)CC1	843 s
O=S(=O)(CCOc1ccccc1)NCc1ccc2c(c1)OCO2	806 s
O=C(Nc1cccc(F)c1)[C@@H]1OCCN(C2CC2)[C@H]1c1ccccc1	675 s

Structure (SMILES)	RP-LC retention time
Cc1ccc(Cn2nc3ccc(S(=O)(=O)N4CCCCC4)cn3c2=O)cc1C	1020 s
Cc1ccc(C2=NC3(CCN(C(=O)c4ccc5ccccc5n4)CC3)ON2)cc1	809 s
COc1ccc(C(=O)N2CCC3(CC2)N=C(c2cccc(Br)c2)NO3)cc1F	901 s
O=C(Cc1ccccc1)N1CCN(c2cc(-c3cccs3)[nH]n2)CC1	765 s
COc1ccccc1NC(=O)c1sc(-c2cn(C)c3ncccc23)nc1C	1060 s
CN(C)CCN1CC(C(=O)N2CCC(c3c[nH]c4ccccc34)(c3c[nH]c4ccccc34)CC2)CC1=O (centres undefined)	657 s
CCC(=O)N1CCc2cc(N3CC(C(=O)NCc4ccccc4)CC3=O)ccc21 (centres undefined)	699 s
CCOC(=O)c1nc(Nc2ccc(OC)c(OC)c2)c2ccccc2n1	736 s
COc1ccc(N2C(=O)C(O)=C(S(=O)(=O)c3ccccc3)C2c2ccccc2)cc1 (centres undefined)	854 s
Cc1nn(C)cc1S(=O)(=O)Nc1c(C)n(C)n(-c2ccccc2)c1=O	722 s
O=C(NCC1CCOCC1)Nc1c(F)cccc1F	628 s
Cc1ccc(-n2cc3c(N4CCCC(C(=O)NCc5ccc(C(C)C)cc5)C4)ncnc3n2)cc1 (centres undefined)	836 s
CCOc1ccc(-c2noc(Cn3cnc4c(cnn4-c4cc(Cl)ccc4C)c3=O)n2)cc1OC	1030 s
CCC(C)NC(=O)C1CCN(Cc2cc3ccccc3n2Cc2cccc(Cl)c2)CC1 (centres undefined)	796 s
O=C(C1CC1)N1[C@H]2CC[C@@H]1c1cnc(-c3ccccc3)nc1C2	817 s
Cc1cc(Cl)ccc1NC(=O)c1cc(C(C)C)on1	1090 s
CCN(CCN(C)C)C(=O)c1cc2c(s1)N(CC)CCCC2	599 s
Cc1noc([C@@H]2CC(F)(F)CN2C(=O)c2ccoc2)n1	703 s
CCn1cc(-c2nc(CC(=O)NCc3ccc(C)cc3)cs2)c2cccnc21	912 s
CCN1CCN(c2cc(C)nc3nc(-c4ccc(C(C)(C)C)cc4)nn23)CC1	677 s
CCNC(=O)c1nc(C(=O)NCc2cc(F)cc(F)c2)cs1	781 s
COC(=O)c1ccccc1NC(=O)CSc1nc2ccccc2s1	1030 s
CNC(=O)N1CCc2nc(-c3ccccc3)ncc2C1	678 s

Structure (SMILES)	RP-LC retention time
Cc1cc(NC(=O)Cc2csc(NC(=O)c3ccc(F)cc3)n2)sn1	701 s
CNC(=O)C1CCCN(c2nc3ncn(CC(=O)Nc4cc(F)cc(F)c4)c(=O)c3s2)C1 (centres undefined)	681 s
CCOC(=O)c1nc(N2CCN(c3ccccc3)CC2)c2ccccc2n1	893 s
CCc1ccc(Nc2nc(C(=O)N3CCCCCC3)nc3ccccc23)cc1	910 s
Cc1ccn2cc(CCNC(=O)c3ccc(C(F)(F)F)cc3)nc2c1	580 s
O=C(COc1ccccc1Cl)Nc1cncc(-c2nc3ccccc3o2)c1	995 s
CS(=O)(=O)c1ccccc1C(=O)Nc1nnc(-c2cc(Cl)sc2Cl)o1	735 s
CC1=C(c2ccc(C)c(C)c2)S(=O)(=O)N=C1N1CCCN(C(=O)NCC(C)C)CC1	853 s
CCSc1nc2ccc(NS(=O)(=O)c3cccc4nsnc34)cc2s1	977 s
O=C(Cn1nc(N2CCCCCC2)c2ccccc2c1=O)Nc1ccc(F)cc1	1090 s
COCc1cn(C2CN(C(=O)c3cnc(C)cn3)C2)nn1	592 s
Cc1cc(NC(=O)CSc2nnc(NC(=O)c3snnc3C)s2)no1	666 s
O=C(NCCCn1ccnc1)C(=O)Nc1c2c(nn1-c1cccc(Cl)c1)CSC2	568 s
Cc1nn(C(C)C(=O)NCCN(C)C)c(=O)c2nn(-c3ccccc3)c(C)c12 (centres undefined)	601 s
Fc1cccc(Cn2cc(-c3noc(-c4cccc(F)c4)n3)nn2)c1	1040 s
CN1C(=O)C2(c3ccccc31)C(C(=O)Nc1c(F)c(F)c(F)c(F)c1F)CC1CCCN12 (centres undefined)	653 s
Cc1ccc(NC(=O)Cn2c(C)nc3c(sc4nc(-c5ccccc5)ccc43)c2=O)cc1Cl	1030 s
Cc1ccccc1OCc1nc(CCN(C)C(=O)CC2CCCC2)no1	1020 s
CCCN1CCn2cc(C(=O)NC(C)c3ccccc3)nc2C1 (centres undefined)	603 s
Cn1cc(C(=O)Nc2cccc(Cl)c2)c2nn(-c3ccccc3)c(=O)c-2c1	1040 s
